Experiment: Topical vasoconstrictor formulation applied to hair-bearing areas of patients receiving cancer chemotherapy; hair loss
Type: in vivo

c1ccc2c(CC3=NCCN3)cccc2c1 [naphazoline]
hair loss (scalp lotion containing 0.01% naphazoline, 30 minutes prior to and 15 minutes after each course of intravenous docetaxel, breast cancer patients): lose little, if any, of their hair

Cc1cc(C(C)(C)C)c(O)c(C)c1CC1=NCCN1 [Oxymetazoline, oxymetazoline]
hair loss (Oxymetazoline 2.0% by weight in hydroethanolic foam, scalp and eyebrows, 60 minutes prior to intravenous nitrogen mustard, then three times daily for two week intervals): prevention of major hair loss

From patent publication US20130079312A1, “Method of Treating Hair Loss Due to Systemic Chemotherapy” (ELORAC, LTD., priority 2011, published 2013)
